The source made the active and inactive calls. The calls are words filed in the database; no cut-off is given here. Numbered stars: 1 amine (or outer) side, 2 acyl side, 3 side chain; on linkers, the order of the positions; unused ones are H or OH. Square brackets hold non-standard residues; d marks the D form. Peptide text beside a SMILES is read from it. X1 = CC(C)=CC[C@@]12C[C@@H](C(=O)[*:2])N([*:1])[C@@H]1Nc1ccccc12
Tests used:
Klebsiella pneumoniae = test: Antibacterial activity against Klebsiella pneumoniae assessed as bacterial growth inhibition at 100 uM measured after 16 hrs by microplate reader assay; assay type: functional, organism-based
MOLT-4 = test: Cytotoxicity against human MOLT4 cells measured after 24 hrs by MTT assay; assay type: functional, cell-based; conditions: MOLT-4, 24 h
Staphylococcus aureus = test: Antibacterial activity against methicillin-resistant Staphylococcus aureus assessed as bacterial growth inhibition at 100 uM measured after 16 hrs by microplate reader assay; assay type: functional, organism-based
MCF7 = test: Cytotoxicity against human MCF7 cells measured after 24 hrs by MTT assay; assay type: functional, cell-based; conditions: MCF7, 24 h
[1] = Inhibition of quorum sensing system in Pseudomonas aeruginosa PAO1 transfected with lasB-GFP at 10 uM by measuring reduction in fluorescence intensity up to 16 hrs by fluorescence assay relative to control
OCI-AML2 = test: Cytotoxicity against human OCI-AML2 cells measured after 24 hrs by MTT assay; assay type: functional, cell-based; conditions: OCI-AML2, 24 h
Escherichia coli = test: Antibacterial activity against Escherichia coli assessed as bacterial growth inhibition at 100 uM measured after 16 hrs by microplate reader assay; assay type: functional, organism-based

In the case of `CC(C)=CC[C@@]12C[C@H]3C(=O)N[C@@H](CC(C)C)C(=O)N[C@@H](Cc4ccccc4)C(=O)N4CCC[C@H]4C(=O)N[C@@H](CC(C)C)C(=O)N4CCC[C@H]4C(=O)N[C@@H](CC(C)C)C(=O)N4CCC[C@H]4C(=O)N[C@@H](C(C)C)C(=O)N4CCC[C@H]4C(=O)N3[C@@H]1Nc1ccccc12` (cyclo(FPLPLPVP[X1]L)), the Activity (Klebsiella pneumoniae) is reported as “inactive”, the IC50 (MOLT-4) is reported as 5.75 µM and the Activity (Staphylococcus aureus) is reported as “inactive”. For the same molecule, the IC50 (MCF7) was 19 µM, the inhibition [1] was 26% and the IC50 (OCI-AML2) was 8.2 µM. For the same molecule, the Activity (Escherichia coli) was “inactive”.

Reference: ChEMBL document CHEMBL4414661, “Trikoramide A, a Prenylated Cyanobactin from the Marine Cyanobacterium Symploca hydnoides” (J Nat Prod, 2019)
